# Experimental data published in EPA's ToxValDB 9.5.
# What was measured:
# [1] = test system: Rattus norvegicus
# [2] = test system: Canidae; conditions: Dog Other; for NOAEL: body weight
# [3] = subchronic, duration: 90 days, oral, diet, M/F, Sprague-Dawley, no effects
# [4] = subchronic, duration: 42 days, oral, gavage, M/F, body weight
compound,measurement,setting,value
CC(=O)NCCS(=O)(=O)O.CC(=O)NCCS(=O)(=O)O.[Mg],NOAEL,"[1]; subchronic, duration: 13 weeks, oral, gavage, M/F, Crj:CD, no effects",1000 mg/kg-day
Cc1nc2cccc(OCC(C)(C)C(=O)NC(C)C)c2c(N)c1C(=O)O,NOAEL,"[1]; reproduction developmental, oral, gavage, F, Crj:CD, no effects",1000 mg/kg-day
same,NOAEL,"[1]; subchronic, duration: 13 weeks, oral, diet, M/F, Crj:CD, no effects",100 mg/kg-day
Cc1sc2nc(=O)[nH]c(N)c2c1C.Cl,NOAEL,"[1]; subchronic, duration: 13 weeks, oral, diet, M/F, Sprague-Dawley, no effects",60 mg/kg-day
Cc1cc(OC2OC(CO)C(O)C(O)C2O)ccc1C(=O)C(C)(C)NC(=O)c1sccc1C (stereo not given),NOAEL,"[2]; chronic, duration: 1 years",1.57 mg/kg-day
same,NOAEL,"[2]; subchronic, duration: 90 days, oral",5.34 mg/kg-day
COc1cc(S(=O)(=O)[O-])c(C)cc1N=Nc1c(O)ccc2cc(S(=O)(=O)[O-])ccc12.[Na+].[Na+],NOAEL,"[1]; chronic, oral, M/F, body weight",701 mg/kg-day
same,NOAEL,"[1]; developmental, M, development",701 mg/kg-day
same,NOAEL,"[1]; reproduction developmental, growth",695 mg/kg-day
same,NOAEL,"[1]; reproduction developmental, oral, M/F, growth",695 mg/kg-day
CC1OCCC12SC1CCOC1(C)S2 (stereo not given),NOAEL,"[1]; subchronic, duration: 90 days, oral, diet, M, hematological",25 mg/kg-day
C[n+]1cccc(C(=N)[O-])c1.Cl,NOAEL,"[1]; chronic, duration: 91 days, oral, gavage, M/F, clinical chemistry",250 mg/kg-day
NC(=O)Cc1cccc2ccccc12 [1-Naphthaleneacetamide],NOAEL,"[1]; developmental, development",15 mg/kg-day
same,NOAEL,"[1]; subchronic, duration: 90 days, oral, hematological",10 mg/kg-day
"C=CCSCC=C [1-Propene, 3,3'-thiobis-]",NOAEL,"[1]; chronic, duration: 14 weeks, oral, gavage, M/F, Wistar, no effects",250 mg/kg-day
"CSCSCSC [2,4,6-Trithiaheptane]",NOAEL,[1]; [3],0.2 mg/kg-day
"CC1(O)CSC(C)(O)CS1 (stereo not given) [2,5-Dimethyl-1,4-dithiane-2,5-diol]",NOAEL,[1]; [3],3.14 mg/kg-day
CC(=O)C1=NCCS1 [2-Acetyl-2-thiazoline],NOAEL,"[1]; subchronic, duration: 90 days",1.8 mg/kg-day
same,NOAEL,"[1]; subchronic, duration: 90 days, oral, diet, M/F, no effects",1.8 mg/kg-day
CCC(CC)C(=O)O [2-Ethylbutyric acid],NOAEL,"[1]; reproduction developmental, duration: 10 days, oral, gavage, F, Sprague-Dawley, no effects",200 mg/kg-day
same,NOAEL,"[1]; reproduction developmental, duration: 10 days, oral, gavage, F, no effects",200 mg/kg-day
CC(O)C(=O)NCCc1ccc(O)cc1 (stereo not given) [2-Hydroxy-N-[2-(4-hydroxyphenyl)ethyl]propanimidic acid],NOAEL,"[1]; subchronic, duration: 90 days, oral, M/F",8.4 mg/kg-day
COc1ccccc1C=O [2-Methoxybenzaldehyde],NOAEL,"[1]; subchronic, duration: 49 days, oral, gavage, histopathology: nonneoplastic",10 mg/kg-day
"O=C1OC(=O)C2C3C=CC(C3)C12 (stereo not given) [2-Norbornene-5,6-dicarboxylic anhydride]",NOAEL,"[1]; subchronic, duration: 90 days, oral, gavage, M/F, body weight",250 mg/kg-day
C=CCCN=C=S [3-Butenyl isothiocyanate],NOAEL,"[1]; chronic, duration: 721 days, oral, gavage, M/F, histopathology: neoplastic",12 mg/kg-day
CCOc1cc(C=O)ccc1O [3-Ethoxy-4-hydroxybenzaldehyde],NOAEL,"[1]; chronic, duration: 14 weeks",500 mg/kg-day
"C=CCc1cc(OC)c(O)c(OC)c1 [4-Allyl-2,6-dimethoxyphenol]",NOAEL,"[1]; subchronic, duration: 90 days, clinical chemistry",300 mg/kg-day
C=C(C)C1CC=C(CO)CC1 (stereo not given) [4-Isopropenylcyclohex-1-en-1-ylmethanol],LEL,"[1]; subchronic, duration: 90 days, oral, gavage, F, no effects",120 mg/kg-day
same,LEL,"[2]; subchronic, duration: 90 days, no effects",120 mg/kg-day
COc1ccc(C=O)cc1 [4-Methoxybenzaldehyde],NOAEL,[1]; [4],20 mg/kg-day
COc1ccc(COC(C)=O)cc1 [4-Methoxybenzyl acetate],NOAEL,[1]; [4],20 mg/kg-day
CCC(=O)CC(C)CC (stereo not given) [5-Methyl-3-heptanone],NOAEL,"[1]; subchronic, duration: 13 weeks, oral, gavage, M, Sprague-Dawley, behavior",82 mg/kg-day
same,NOAEL,"[1]; subchronic, duration: 13 weeks, oral, gavage, M, Sprague-Dawley, clinical signs",82 mg/kg-day
same,NOAEL,"[1]; subchronic, duration: 13 weeks, oral, gavage, M, behavior",82 mg/kg-day
same,NOAEL,"[1]; subchronic, duration: 13 weeks, oral, gavage, M, neurology",82 mg/kg-day
CC(=O)OC1(C)CCCC(C)(C)C12CCC(C)O2 (stereo not given) [6-Acetoxydihydrotheaspirane],NOAEL,"[1]; subchronic, duration: 90 days, oral, diet, M/F, Crj:CD, food efficiency",52 mg/kg-day
"CCCCCC1CC=CC(=O)O1 (stereo not given) [6-Pentyl-5,6-dihydro-2H-pyran-2-one]",NOAEL,"[1]; subchronic, duration: 90 days",12.1 mg/kg-day
CCC/C=C/C=O [(2E)-2-Hexenal],NOAEL,"[1]; subchronic, duration: 13 weeks, oral, diet, M/F, no effects",257 mg/kg-day
"C/C=C/C=C/C=O [(2E,4E)-2,4-Hexadienal]",NOAEL,"[1]; chronic, duration: 14 weeks, oral, gavage, M/F, body weight",15 mg/kg-day
CC(C)(C)c1ccc(CC#N)cc1 [(4-tert-Butylphenyl)acetonitrile],NOAEL,"[1]; short-term, duration: 28 days",6.5 mg/kg-day
